Here are results for 8 compounds from patent EP1080165B1, “HYDROCARBON LIQUID FORMULATION” (MACFARLAN SMITH LIMITED, priority 1998, dated 1999).

The nature of data set [1]: Evaluation of co-solvents for a clear stable formulation of denatonium benzoate in lamp oil. Also noted: key to Assessment: Those combinations marked as "FAIL" were observed to exhibit turbidity and insufficient stability in the amount of denaturant introduced to the lamp oil; PASS: success in obtaining a clear stable formulation of the preferred denaturant. It counts as physicochemical. Particulars: for Assessment: clear stable formulation of denatonium benzoate/"BITREX" in lamp oil, only the co-solvent varied. From the text: The following Table I summarises the results of this evaluation stage, and in particular assesses the success in obtaining a clear stable formulation of the preferred denaturant (denatonium benzoate/ "BITREX"®) in a target commercial product to be denatured (lamp oil). […] In each case, the only critical variation lay in the selection of the co-solvent. Apart from the attempted use of rape seed oil, it is assumed that the co-solvent is essentially a single chemical entity.
(§1) As an illustrative example of procedure, one may prepare a 40ppm "BITREX®" doped lamp oil by simply stirring in a previously prepared 0.1% solution of "BITREX®" in the selected co-solvent TEXANOL® to a level of 4% (all amounts described herein are w/w). A similar procedure was found effective in denaturing, white spirit, dearomatised white spirit, and isoparaffin.

Data set [2] can be described thus: Denaturing of other liquid hydrocarbons with a BITREX solution in TEXANOL. It is filed as physicochemical. The following applies: 0.1% solution of BITREX in co-solvent stirred in; white spirit, dearomatised white spirit and isoparaffin.
Source text: as §1

The conditions of data set [3]: as low as; cited from earlier work.
For data set [4] the following is noted: cited from earlier work.
Data set [5] is described as follows: Alkanol co-solvents enabling introduction of BITREX at the desired level. It is filed as physicochemical. The following applies: co-solvent for BITREX in liquid hydrocarbon.

As to `CCCCC(CC)COC(=O)C(CC)CCCC` (centres unmarked) [2-Ethylhexyl-2-ethylhexanoate], in data set [1], the Assessment result was “FAIL”. Take “2,2,4-trimethylpentan-1,3-diol-monoisobutanoate”: the Assessment entry in data set [1] is “PASS”. The “effectiveness in achieving the objective of the invention” value in data set [1] (denatonium benzoate in lamp oil, summary of Table I) is on record as “highly effective”. The effective in denaturing result in data set [2] is on record as “effective”.

As for `CCCCCCCCCC(=O)OC(C)C` [Isopropyldecanoate], in data set [1], the Assessment result is “FAIL”.

Take `CCCCCCCCCCCC(=O)OC(C)C` [Isopropyllaurate]: the Assessment entry in data set [1] is on record as “FAIL”.

As to `CC[N+](CC)(CC(=O)Nc1c(C)cccc1C)Cc1ccccc1` [denatonium benzoate, Denatonium benzoate], the “concentration giving an acceptable level of aversive activity” value in data set [3] is recorded as 10 ppm. Besides, the “solubility in apolar liquids” value in data set [4] is given as “extremely insoluble”. Take `CCCCCCCCCCCCCCCCO` [1-hexadecanol]: the “effective in enabling introduction of the preferred aversive agent "BITREX" at the desired level” value in data set [5] is given as “effective”.

Take `CCCCCCCCO` [1-octanol]: the “effective in enabling introduction of the preferred aversive agent "BITREX" at the desired level” value in data set [5] is “effective”. As for `CCCCCCCCCCCC(=O)OCC(CC)CCCC` (centres unmarked) [2-Ethylhexyllaurate], the Assessment result in data set [1] is on record as “FAIL”.
